Several values for one entry are separate records, joined by “and”; a condition that tells them apart may be missing. Identical values can stand only once. Ends that are not written are not given here.
Biological target: T1, ACE from pig kidney (Sus scrofa, UniProt F1RRW5)
T1 construct: 1 mU ACE from pig kidney (EC 3.4.15.1 (Sigma)); purchased Sigma; host or cells: pig kidney (tissue-derived enzyme)
T1 sequence (F1RRW5 34-1309): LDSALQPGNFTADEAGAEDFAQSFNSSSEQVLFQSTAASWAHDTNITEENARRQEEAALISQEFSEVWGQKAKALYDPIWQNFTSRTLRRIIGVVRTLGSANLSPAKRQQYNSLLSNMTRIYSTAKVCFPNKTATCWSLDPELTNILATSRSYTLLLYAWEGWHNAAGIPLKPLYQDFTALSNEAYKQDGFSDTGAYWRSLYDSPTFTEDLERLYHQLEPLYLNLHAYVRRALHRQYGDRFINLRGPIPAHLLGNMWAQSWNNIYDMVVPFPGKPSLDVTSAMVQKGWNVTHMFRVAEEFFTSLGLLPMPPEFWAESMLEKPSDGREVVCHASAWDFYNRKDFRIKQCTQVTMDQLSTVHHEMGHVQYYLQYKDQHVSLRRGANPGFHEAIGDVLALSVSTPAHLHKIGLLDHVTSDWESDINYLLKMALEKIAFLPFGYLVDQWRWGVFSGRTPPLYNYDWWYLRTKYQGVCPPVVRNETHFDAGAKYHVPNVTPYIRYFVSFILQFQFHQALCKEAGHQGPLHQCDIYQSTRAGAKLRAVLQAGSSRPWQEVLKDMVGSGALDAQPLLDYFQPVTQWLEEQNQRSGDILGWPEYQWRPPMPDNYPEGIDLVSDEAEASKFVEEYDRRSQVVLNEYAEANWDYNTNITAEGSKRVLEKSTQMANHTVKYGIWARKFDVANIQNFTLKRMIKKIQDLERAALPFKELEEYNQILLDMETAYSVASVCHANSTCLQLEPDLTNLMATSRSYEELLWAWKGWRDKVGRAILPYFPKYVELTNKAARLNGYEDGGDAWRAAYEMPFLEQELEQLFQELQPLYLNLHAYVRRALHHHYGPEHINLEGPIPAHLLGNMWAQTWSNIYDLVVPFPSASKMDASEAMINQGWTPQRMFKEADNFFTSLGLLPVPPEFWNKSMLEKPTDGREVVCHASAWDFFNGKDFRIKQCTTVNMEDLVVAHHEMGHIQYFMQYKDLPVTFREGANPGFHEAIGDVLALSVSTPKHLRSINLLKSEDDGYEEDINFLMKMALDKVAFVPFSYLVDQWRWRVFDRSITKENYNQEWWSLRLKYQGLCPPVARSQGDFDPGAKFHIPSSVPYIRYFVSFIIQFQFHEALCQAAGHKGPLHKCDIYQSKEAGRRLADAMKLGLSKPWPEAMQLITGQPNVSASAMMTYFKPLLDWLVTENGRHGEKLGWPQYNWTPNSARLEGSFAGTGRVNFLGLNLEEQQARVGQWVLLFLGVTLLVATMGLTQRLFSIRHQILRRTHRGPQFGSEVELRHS
Assay: biochemical
Type: biochemical
Conditions: for IC50: ACE from pig kidney, determined graphically, read-out: IC50-value (ACE inhibition)
From the text: These peptides were investigated for their inhibitory effect using an in vitro-ACE-inhibitor-assay with an angiotensin-converting-enzyme derived from pig kidney. Hippuryl-histidyl-leucin was used as a substrate. […] A concrete experimental description is given below.
The principle of the ACE-inhibition-assay was established by Chejung, H. S., Cushman, D. W.: “Inhibition of homogenous angiotensin converting enzyme of rabbit lung by synthetic venom peptides of Bothrops jararaca.” in Biochimica et Biophysica Acta 293, 451-563 (1973).
The assay was performed in 96 well HTRF-plates (Packard). The concentrations used for each well were:
1 mU ACE from pig kidney (EC 3.4.15.1 (Sigma)) in 30 μl of assay buffer (25 mM HEPES; 0,3 M NaCl, pH 8,2) and 20 μl inhibitor dissolved in assay buffer (0,35-200 μM). The reaction was started by adding 50 μl of 2 mM hippuryl-histidyl-leucin (Sigma) in assay buffer. The reaction was performed at room temperature (22° C.) for 30 minutes and terminated by adding 50 μl of 2 M NaOH. Afterwards 50 μl of 0,5% ortho-phtalaldehyd (Sigma) in methanol were added, 5 minutes later followed by 50 μl of 2,5 M HCl-solution to stabilize the developed fluorescence product.
The results were used to calculate the % inhibition. The IC50-values were determined graphically from a curve showing the dose-reaction ratio.
In order to minimize errors due to time-dependent differences, all pipetting steps were performed in a precise time schedule.

[1] = inhibitor 0.39 μM, replicates A-D
[2] = inhibitor 0.39 μM, replicates A-D, 0.39 µM
[3] = inhibitor 0.78125 μM, replicates A-D
[4] = inhibitor 0.78125 μM, replicates A-D, 0.78125 µM
[5] = inhibitor 1.5625 μM, replicates A-D
[6] = inhibitor 1.5625 μM, replicates A-D, 1.5625 µM
[7] = inhibitor 3.125 μM, replicates A-D
[8] = inhibitor 3.125 μM, replicates A-D, 3.125 µM
[9] = inhibitor 6.25 μM, replicates A-D
[10] = inhibitor 6.25 μM, replicates A-D, 6.25 µM
[11] = inhibitor 12.5 μM, replicates A-D
[12] = inhibitor 12.5 μM, replicates A-D, 12.5 µM
[13] = inhibitor 25 μM, replicates A-D
[14] = inhibitor 25 μM, replicates A-D, 25 µM
[15] = inhibitor 50 μM, replicates A-D
[16] = inhibitor 50 μM, replicates A-D, 50 µM
[17] = inhibitor 100 μM, replicates A-D
[18] = inhibitor 100 μM, replicates A-D, 100 µM
[19] = inhibitor 200 μM, replicates A-D
[20] = inhibitor 200 μM, replicates A-D, 200 µM

| Sequence | IC50 [µM] | fluorescence reading (ACE Inhibitor Assay) [1] | % inhibition (ACE Inhibitor Assay) [2] | fluorescence reading (ACE Inhibitor Assay) [3] | % inhibition (ACE Inhibitor Assay) [4] | fluorescence reading (ACE Inhibitor Assay) [5] | % inhibition (ACE Inhibitor Assay) [6] | fluorescence reading (ACE Inhibitor Assay) [7] | % inhibition (ACE Inhibitor Assay) [8] | fluorescence reading (ACE Inhibitor Assay) [9] | inhibition at 6.25 µM [9] [%] | % inhibition (ACE Inhibitor Assay) [10] | fluorescence reading (ACE Inhibitor Assay) [11] | inhibition at 12.5 µM [11] [%] | % inhibition (ACE Inhibitor Assay) [12] | fluorescence reading (ACE Inhibitor Assay) [13] | inhibition at 25 µM [13] [%] | % inhibition (ACE Inhibitor Assay) [14] | fluorescence reading (ACE Inhibitor Assay) [15] | inhibition at 50 µM [15] [%] | further results |
| --- | --- | --- | --- | --- | --- | --- | --- | --- | --- | --- | --- | --- | --- | --- | --- | --- | --- | --- | --- | --- | --- |
| AALSPLPEVPP [Peptide S494] | 9 | 704319 and 727603 and 762908 and 659968 | 2.56% and −0.67% and −5.59% and 8.74% | 643151 and 655606 and 667363 and 633619 | 9.35% and 7.71% and 12.41% | 602329 and 645065 and 664903 and 606137 | 16.77% and 10.82% and 8.05% and 16.23% | 563277 and 547546 and 579178 and 556345 | 24.4% and 20% and 23.17% | 420434 and 435365 and 427540 and 433344 | 42.1 | 40.02% and 41.11% and 40.3% | 312590 and 306320 and 319249 and 308116 | 57.1 | 57.99% and 56.19% and 57.74% | 193365 and 203903 and 204201 and 188693 | 73.7 | 72.26% and 72.21% and 74.38% | 119135 and 120732 and 124777 and 108988 | 84.1 | inhibition at 0.78125 µM [3]: 11.1%; inhibition at 3.125 µM [7]: 22.2%; % inhibition (ACE Inhibitor Assay) [16]: 83.84% and 83.28% and 85.48%; fluorescence reading (ACE Inhibitor Assay) [17]: 59914 and 62551 and 64312 and 57543; inhibition at 100 µM [17]: 92.3%; % inhibition (ACE Inhibitor Assay) [18]: 91.94% and 91.7% and 92.64%; fluorescence reading (ACE Inhibitor Assay) [19]: 34342 and 34053 and 34364 and 34738; inhibition at 200 µM [19]: 95.9%; % inhibition (ACE Inhibitor Assay) [20]: 95.91% and 95.82% |
| AGAALSPLPEVPP [Peptide S543] | 25 | 959059 and 985299 and 971597 and 996656 | 5.2% and 6.53% and 4.1% | 946496 and 913444 and 925926 and 981909 | 8.95% and 12.15% and 10.945% and 5.53% | 923507 and 888699 and 915925 and 980940 | 11.18% and 14.54% and 11.9% and 5.62% | 868636 and 880388 and 856283 and 938801 | 15.35% and 17.68% and 9.7% | 816251 and 788199 and 773151 and 833135 | 21.6 | 24.26% and 25.72% and 19.92% | 683603 and 714973 and 720213 and 700323 | 34.4 | 31.35% and 30.84% and 32.76% | 519515 and 531562 and 515233 and 534895 | 50.2 | 49.09% and 50.66% and 48.76% | 362416 and 357767 and 358975 and 367216 | 65.5 | inhibition at 0.39 µM [1]: 7.74%; inhibition at 3.125 µM [7]: 16.5%; % inhibition (ACE Inhibitor Assay) [16]: 65.9% and 65.78% and 64.98%; fluorescence reading (ACE Inhibitor Assay) [17]: 211437 and 206169 and 209393 and 219372; inhibition at 100 µM [17]: 80%; % inhibition (ACE Inhibitor Assay) [18]: 80.56% and 80.25% and 79.28%; fluorescence reading (ACE Inhibitor Assay) [19]: 107628 and 110019 and 108841 and 111945; inhibition at 200 µM [19]: 90.1%; % inhibition (ACE Inhibitor Assay) [20]: 89.95% and 89.97% and 89.67% |
| EAGAALSPLPEVPP [Peptide S542] | 38 | 930945 and 967806 and 1003456 and 906307 | 4.59% and 0.79% and −2.87% and 7.13% | 910838 and 902555 and 939597 and 880680 | 6.66% and 7.52% and 3.7% and 9.77% | 794214 and 874684 and 882788 and 794177 | 10.39% and 9.55% | 821478 and 820849 and 868901 and 796263 | 15.93% and 10.98% and 18.47% | 801078 and 799975 and 802324 and 795040 | 18 | 18.08% and 17.84% and 18.59% | 719799 and 744223 and 765229 and 709216 | 26.3 | 23.83% and 21.66% and 27.43% | 609106 and 591988 and 618193 and 569641 | 37.8 | 39.51% and 36.81% and 41.81% | 424530 and 419325 and 440093 and 406539 | 56.8 | inhibition at 1.5625 µM [5]: 18.7%; inhibition at 3.125 µM [7]: 15.9%; % inhibition (ACE Inhibitor Assay) [16]: 57.3% and 55.16% and 58.61%; fluorescence reading (ACE Inhibitor Assay) [17]: 273140 and 278465 and 286263 and 274375; inhibition at 100 µM [17]: 72.3%; % inhibition (ACE Inhibitor Assay) [18]: 71.8% and 71% and 72.23%; fluorescence reading (ACE Inhibitor Assay) [19]: 167517 and 173807 and 184836 and 169891; inhibition at 200 µM [19]: 83.2%; % inhibition (ACE Inhibitor Assay) [20]: 82.59% and 81.45% and 82.99% |
| GAALSPLPEVPP [Peptide S544] | 29 | 841511 and 894833 and 882762 and 936430 | 9.4% and 3.63% and 4.93% and −0.88% | 853374 and 881105 and 872351 and 929364 | 8.12% and 5.11% and 6.06% and −0.11% | 864708 and 811879 and 787983 and 930998 | 6.89% and 12.61% and 15.2% and −0.29% | 822128 and 840019 and 799408 and 883161 | 11.5% and 9.56% and 13.96% and 4.89% | 670407 and 719205 and 725919 and 735049 | 27.9 | 22.66% and 21.93% and 20.94% | 668628 and 658367 and 643614 and 684354 | 28.1 | 29.25% and 30.85% and 26.43% | 494831 and 495043 and 522915 and 521311 | 47 | 46.95% and 43.93% and 44.1% | 263679 and 261020 and 262784 and 286592 | 72 | % inhibition (ACE Inhibitor Assay) [16]: 72.3% and 72.12% and 69.54%; fluorescence reading (ACE Inhibitor Assay) [17]: 154967 and 152193 and 156501 and 158918; inhibition at 100 µM [17]: 83.8%; % inhibition (ACE Inhibitor Assay) [18]: 84.1% and 83.63% and 83.37%; fluorescence reading (ACE Inhibitor Assay) [19]: 92239 and 93028 and 95574 and 94363; inhibition at 200 µM [19]: 90.6%; % inhibition (ACE Inhibitor Assay) [20]: 90.51% and 90.23% and 90.34% |

From patent publication US20030203373A1 (priority 2002, published 2003)
